From patent publication US5192799A, “Coumaran group containing amine compounds and their acid addition salts and quaternary ammonium salts and the use thereof as anti arrhythmic agents and as psychotropic agents” (Mitsui Petrochemical Industries, Ltd., priority 1987, dated 1993)
Like-named read-outs stand apart in the source and are kept apart here.

Legend:
[1] = system: right ventricle (effective refractory period); assay: Activity on ERP of the right ventricle; format: in vivo, adult mongrel dog; conditions: Canis lupus familiaris, ERP before drug = 100%, read-out: ERP % (ERP prolonging activity)
Procedure: The pharmacological effects of the compounds of this invention represented by general formula (1) were studied. By using the heart of an adult mongrel dog, the activity of the compounds of general formula (1) were tested in vitro and in vivo. The heart of an anaethetized dog was extracted and suspended in a chamber at 37° C. in Tyrode's solution. The drug was added to Tyrode's solution being perfused through the heart specimen, and electrophysiological effects of the drug on cardiac action potential duration (APD) and maximum rate of depolarization were studied. An anaethetized dog was cut open at the chest. […] In an anaethetized and open-chested adult mongrel dug, a silver-silver chloride electrode was sutured to the right ventricle, and ventricular pacing was performed at a stimulation interval of 400 msec for a duration time of 4 msec, twice diastolic threshold. Then, a small amount of alcohol was injected through the sinus artery to extinguish the pacemaker activity, and under ventricular pacing, ERP was measured. Ten stimulations were taken as one train, and the interval between trains when the response to the first stimulation disappeared was defined as ERP. […] ERP before drug administration (intravenously or intraduodenally) was taken as 100%, and ERP prolonging activity of the drugs was expressed by %.

Purkinje fiber = assay: Effect on APD (APD75, field-stimulated right ventricular free wall); format: cell-based, adult mongrel dog; conditions: Canis lupus familiaris, purkinje, 20 min, 20 minutes incubation, 37° C., 1 Hz, control before drug = 100%, read-out: APD75 % (percent change in APD75); for activation at 1 µg/mL: dose 1 μg/ml; for activation at 3 µg/mL: dose 3 μg/ml; for activation at 10 µg/mL: dose 10 μg/ml
Procedure: The pharmacological effects of the compounds of this invention represented by general formula (1) were studied. By using the heart of an adult mongrel dog, the activity of the compounds of general formula (1) were tested in vitro and in vivo. The heart of an anaethetized dog was extracted and suspended in a chamber at 37° C. in Tyrode's solution. The drug was added to Tyrode's solution being perfused through the heart specimen, and electrophysiological effects of the drug on cardiac action potential duration (APD) and maximum rate of depolarization were studied. An anaethetized dog was cut open at the chest.
An adult mongrel dog was anaethetized with intravenous administration of pentobarbital, 30 mg/kg. The heart was quickly removed, and the right ventricular free wall was dissected in the Tyrode's solution. The right ventricular free wall was fixed within an incubator at 37° C., and field stimulation at 1 Hz was carried out. Intracellular potentials were measured by piercing glass microelectrodes (10-20 megaohms) into the Purkinje fiber and the wave form of cardiac action potential drawn on an oscilloBraun tube via an amplifier was analyzed by a computer. Value of APD was obtained at 75% of full repolarization (APD75). The drug was added to Tyrode's solution (20 ml) perfused through the specimen. The effect of the drug was expressed by a percent change in APD75 after incubation for 20 minutes with the control value of APD before application of the drug being taken as 100%.

in vivo = conditions: mouse, in vivo
Procedure: By using male ddY-strain 5-week old mice (3 to 4 per group), the compounds of general formula (1) were each administered orally or intraperitoneally as a solution in saline or as a suspension in methyl cellulose, and 24 hours after the administration, the toxicity of the compounds was evaluated.

[2] = po, LD50 p.o., p.o., 24 hours after administration, male ddY mice

## CC(C)CN(CCCOc1ccc2c(c1)OCC2=O)CC(C)C [Compound 132]
[1]; iv, 0.1 mg/kg i.v.
  change in vivo at 0.1 mg/kg: 2.4 ± 2.4%
[1]; iv, 0.3 mg/kg i.v.
  change in vivo at 0.3 mg/kg: 2.4 ± 2.4%
[1]; iv, 1 mg/kg i.v.
  change in vivo at 1 mg/kg: 4.8 ± 4.8%
[1]; iv, 3 mg/kg i.v.
  change in vivo at 3 mg/kg: 4.8 ± 4.8%
Purkinje fiber
  activation at 1 µg/mL: 7%
  activation at 3 µg/mL: 18%
  activation at 10 µg/mL: 21%
In vivo; [2]
  LD50 at 24 h: > 300 mg/kg

## CCC1CCN(CCCOc2ccc3c(c2)OCC3=O)CC1 [Compound 1274]
[1]; iv, 0.1 mg/kg i.v.
  change in vivo at 0.1 mg/kg: 0%
[1]; iv, 0.3 mg/kg i.v.
  change in vivo at 0.3 mg/kg: 6.7%
[1]; iv, 1 mg/kg i.v.
  change in vivo at 1 mg/kg: 13.3%
[1]; iv, 3 mg/kg i.v.
  change in vivo at 3 mg/kg: 13.3%
Purkinje fiber
  activation at 1 µg/mL: 6%
  activation at 3 µg/mL: 19%
In vivo; po
  LD50 at 24 h: < 300 mg/kg

## CCCCN(CCCOc1ccc2c(c1)OCC2=O)CC(C)C [Compound 128]
Purkinje fiber
  activation at 1 µg/mL: 9%
  activation at 3 µg/mL: 18%
In vivo; [2]
  LD50 at 24 h: > 300 mg/kg

## CC1CCN(CCCOc2ccc3c(c2)OCC3=O)CC(C)C1 (stereo not shown) [Compound 1194]
Purkinje fiber
  activation at 1 µg/mL: 16%
  activation at 3 µg/mL: 19%
In vivo; [2]
  LD50 at 24 h: > 300 mg/kg

## CCCCCCC[N+](CC)(CC)CCCOc1ccc2c(c1)OCC2O (stereo not shown) [Compound 470]
[1]; iv, 0.1 mg/kg i.v.
  change in vivo at 0.1 mg/kg: 0%
[1]; iv, 0.3 mg/kg i.v.
  change in vivo at 0.3 mg/kg: 0%
[1]; iv, 1 mg/kg i.v.
  change in vivo at 1 mg/kg: 2%
[1]; iv, 3 mg/kg i.v.
  change in vivo at 3 mg/kg: 8%
Purkinje fiber
  activation at 1 µg/mL: 13%
  activation at 3 µg/mL: 16%
  activation at 10 µg/mL: 20%
In vivo; [2]
  LD50 at 24 h: > 300 mg/kg

## CCCCCCC[N+](CC)(CC)CCCOc1ccc2c(c1)OCC2=O.[Br-] [Compound 286, (3-oxo-6-coumaranoxypropyl)diethylheptyl ammonium bromide]
[1]; iv, 0.1 mg/kg i.v.
  change in vivo at 0.1 mg/kg: 5.7 ± 0.3%
[1]; iv, 0.3 mg/kg i.v.
  change in vivo at 0.3 mg/kg: 15.7 ± 5.5%
[1]; iv, 1 mg/kg i.v.
  change in vivo at 1 mg/kg: 15.7 ± 5.5%
[1]; iv, 3 mg/kg i.v.
  change in vivo at 3 mg/kg: 17.7 ± 7.3%
[1]; 0.1 mg/kg i.d.
  change in vivo at 0.1 mg/kg: 0%
[1]; 0.3 mg/kg i.d.
  change in vivo at 0.3 mg/kg: 0%
[1]; 1 mg/kg i.d.
  change in vivo at 1 mg/kg: 10%
[1]; 3 mg/kg i.d.
  change in vivo at 3 mg/kg: 19%
Purkinje fiber
  activation at 1 µg/mL: 17%
  activation at 3 µg/mL: 29%
In vivo; ip, LD50 i.p., i.p., 24 hours after administration, male ddY mice
  LD50 at 24 h: 100 to 500 mg/kg
In vivo; [2]
  LD50 at 24 h: 300 to 1000 mg/kg

## CCCCCCC[N+](CC)(CC)CCCOc1cccc2ccc(=O)oc12 [Compound 632]
Purkinje fiber
  activation at 3 µg/mL: 44%
  activation at 10 µg/mL: 18%
In vivo; [2]
  LD50 at 24 h: > 300 mg/kg

## CC1CCN(CCCOc2ccc3c(c2)OCC3=O)CC1 [Compound 1122]
[1]; iv, 1 mg/kg i.v.
  change in vivo at 1 mg/kg: 9%
[1]; iv, 3 mg/kg i.v.
  change in vivo at 3 mg/kg: 15%
Purkinje fiber
  activation at 1 µg/mL: 4%
  activation at 3 µg/mL: 15%
  activation at 10 µg/mL: 42%
In vivo; [2]
  LD50 at 24 h: > 300 mg/kg

## CCN(CCCCCCO)CCCOc1ccc2c(c1)OCC2=O [Compound 188]
Purkinje fiber
  activation at 1 µg/mL: 17%
  activation at 3 µg/mL: 19%
  activation at 10 µg/mL: 19%
In vivo; [2]
  LD50 at 24 h: > 300 mg/kg

## CCCCCCC[N+](CC)(CC)CCCOc1ccc2oc(=O)cc(C)c2c1 [Compound 630]
[1]; iv, 0.1 mg/kg i.v.
  change in vivo at 0.1 mg/kg: 3%
[1]; iv, 0.3 mg/kg i.v.
  change in vivo at 0.3 mg/kg: 5%
[1]; iv, 1 mg/kg i.v.
  change in vivo at 1 mg/kg: 8%
Purkinje fiber
  activation at 3 µg/mL: 25%
  activation at 10 µg/mL: 48%
In vivo; [2]
  LD50 at 24 h: > 300 mg/kg

## C=CCN(CCCOc1ccc2c(c1)OCC2=O)C1CCCCC1 [Compound 160]
Purkinje fiber
  activation at 1 µg/mL: 0%
  activation at 3 µg/mL: 7%
  activation at 10 µg/mL: 11%
In vivo; [2]
  LD50 at 24 h: > 300 mg/kg
